Values quoted from earlier work as cited in US12029811B2, “Formulation and method for the treatment of androgenic alopecia” (CENTRO INTERNACIONAL DE COSMIATRÍA, S.A.P.I. DE C.V., priority 2018, dated 2024).

Tests used:
patients = settings: oral, 5 mg tablets; impotence, erection failure, decreased libido, gynecomastia
alopecia = settings: topical 5% solution (male) or 2% (female alopecia)

Row | Compound | Side effects (in words) (patients) | Individuals responding to the treatment (alopecia) [%]
1 | CC(C)(C)NC(=O)[C@H]1CC[C@H]2[C@@H]3CC[C@H]4NC(=O)C=C[C@]4(C)[C@H]3CC[C@]12C [Finasteride, N-(1,1-dimethylethyl)-3-oxo-4-aza 5a-androst-1-en-17β-carboxamide] | side effects were significant | 
2 | Nc1cc(N2CCCCC2)nc(N)[n+]1[O-] [Minoxidil, 2,6-diamino-4-(piperidin-1-yl) pyrimidine 1-oxide] |  | ≤ 40
